# Data: patent EP2954896A1, “Small molecule inhibitors of the E3 Ligase Skp2 in depression and other diseases” (Max-Planck-Gesellschaft zur Förderung der Wissenschaften …, priority 2014, dated 2015)
# Columns and labels:
# Beclin1 [1] = assay: Protein levels in brain extracts (hippocampus, prefrontal cortex) of SMIP004-treated mice; assay type: in vivo, C57BL/6 mice; conditions: various cell types; brain lysates of animals treated with SMIP004 (0.5 or 5 mgkg-1)
# Description: (§1) Western blot analysis was performed on eluates from ColPs or with protein extracts from cells or tissue. Protein extracts were obtained by lysing cells or tissue (prelysed as described in the paragraph before) in 62.5 mM Tris, 2% SDS and 10% sucrose, supplemented with protease (Sigma, P2714) and phosphatase (Roche, 04906837001) inhibitor cocktail. Samples were sonicated and heated at 95 °C for 5 min. Proteins were separated by SDS-PAGE and electro-transferred onto nitrocellulose membranes. Blots were placed in Tris-buffered saline, supplemented with 0.05% Tween (Sigma, P2287) and 5% non-fat milk for 1 h at room temperature and then incubated with primary antibody (diluted in TBS/0.05% Tween) overnight at 4 °C. […]
# Furthermore the neuronal activity in CA1 hippocampus was measured after treatment with SMIP004 (Figure 7). […] And protein levels were determined in extracts of the hippocampus and the prefrontal cortex.
# soluble Aβ = assay: Aβ42 ELISA in Alzheimer model mice (TG2576); assay type: in vivo, TG2576 animals; conditions: 5mg/kg daily intraperitoneal for 3 months
# Description: (§2) TG2576 animals (used as Alzheimer's disease model, overexpress a mutant form of amyloid precursor protein (APP)) were chronically treated with daily intraperitoneal injections of SMIP004 (N-(4-butyl-2-methylphenyl)acetamide; 5mg/kg) or vehicle (0.9% NaCl; 1.25% DMSO) for 3 months. Brain and other tissue was analyzed for markers of autophagy and for the levels of soluble beta-amyloid (Aβ). It is commonly assumed that Aβ agglomerates are causally linked to Alzheimer's disease.
# autophagy = assay: Autophagy markers (Western blot, Beclin1 immunoprecipitation) in brain extracts of Alzheimer model mice (TG2576); assay type: in vivo, TG2576 animals; conditions: 5mg/kg daily intraperitoneal for 3 months
# Description: (§3) For the precipitation of Beclin1 from brain tissue (Fig. 15), the tissue was first homogenized (300µL of Buffer I (50 mM Tris (pH 7.5), 150 mM NaCl, 5 mM EDTA, Protease inhibitor Mix (Sigma , P2714), Phosphatase Inhibitor (Roche, 04906837001)) followed by sonication and addition of 300µL of Buffer II (50 mM Tris (pH 7.5), 150 mM NaCl, 1% NP40, 1% Deoxycholate, 2% SDS, Protease inhibitor Mix (Sigma , P2714), Phosphatase Inhibitor (Roche, 04906837001)).
# as §1, with “membranes.” for “membranes. Blots were placed in Tris-buffered saline, supplemented with 0.05% Tween (Sigma, P2287) and 5% non-fat milk for 1 h at room temperature and then incubated with primary antibody (diluted in TBS/0.05% Tween) overnight at 4 °C.”
# as §2, with “It is commonly assumed that Aβ agglomerates are causally linked to Alzheimer's disease.” left out
# CA1 neuronal activity = assay: Voltage-sensitive dye imaging (VSDI) of evoked CA1 neuronal activity in brain slices; conditions: 10 µM SMIP004, 1 h after wash in; slices from C57BL/6 mice
# Description: Brain slices were obtained from 11-18 week-old male FKBP51+/+ and FKBP51-/- litter mates (Fig. 1) or from BL6 mice (Fig. 7). […] Four acquisitions subsequently recorded at intervals of 5 s were averaged. Neuronal activity was evoked by square pulse electrical stimuli (200 µs pulse width) delivered via a custom-made monopolar tungsten electrode to the Schaffer collateral-commissural pathway. The circular ROI was placed into the CA1 stratum radiatum near the stimulation electrode. The ROI also covered a part of the adjacent CA1 stratum pyramidale (Fig. 1 B). The intensity of voltage stimulation was adjusted to produce FDSs with peak amplitudes of ~30% of the highest attainable value.
# Hippocampal CA3-CA1 synapses were electrically stimulated in brain slices from Fkbp51^+/+ and Fkbp51^-/- mice, and CA1 neuronal activity was monitored by means of voltagesensitive dye imaging (VSDI).
# [2] = test system: primary rat cortical astrocytes; assay: MTT cytotoxicity assay in primary rat cortical astrocytes; assay type: cell-based
# Description: (§4) Enriched astroglial cultures were prepared from postnatal day 1 rat pups (Sprague-Dawley, Charles River, Sulzfeld, Germany) and handled as described by Attwood BK et al. (2011) Nature 473: 372-375 and Hartmann J et al. (2012) Neuropharmacology 62: 332-339.
# In an effort to find a small molecule to inhibit the E3 ligase Skp2 three promising candidates of published chemical genetic screens were tested on cellular toxicity and its potency to stabilise Beclin1. Cytotoxicity was determined by an MTT assay performed in HEK 293 cell and in primary rat cortical astrocytes. Effects of small compounds on Beclin1 and p27 protein levels were determined by Western analysis of HEK 293 primary rat cortical astrocytic lysates (see Fig. 6).
# Tail suspension test = assay type: in vivo; conditions: C57BL/6 mice; SMIP004 0.5 or 5 mgkg-1; paroxetine 10 mgkg-1 as comparator
# Beclin1 [3] = assay: Western analysis of Beclin1 protein level in primary rat cortical astrocytes; assay type: cell-based
# Description: as §1
# APP-CTF = APP-CTF Western blot in brain extracts of Alzheimer model mice (TG2576); assay type: in vivo, TG2576 animals; conditions: 5mg/kg daily intraperitoneal for 3 months
# Description: as §3
# as §1, with “membranes.” for “membranes. Blots were placed in Tris-buffered saline, supplemented with 0.05% Tween (Sigma, P2287) and 5% non-fat milk for 1 h at room temperature and then incubated with primary antibody (diluted in TBS/0.05% Tween) overnight at 4 °C.”
# as §2, with “It is commonly assumed that Aβ agglomerates are causally linked to Alzheimer's disease.” left out
# Beclin1 [4] = assay: Western analysis of Beclin1 and p27 protein levels in HEK 293 and astrocytic lysates; assay type: cell-based; conditions: HEK 293 and primary rat cortical astrocytic lysates
# Description: as §1
# autophagy markers = assay: Autophagy markers in protein extracts of hippocampus and prefrontal cortex after acute antidepressant injection; assay type: in vivo, mice; conditions: FKBP51 WT versus FKBP51 KO mice; 10 mg kg-1
# Description: Western blot analysis was performed on eluates from ColPs or with protein extracts from cells or tissue. Protein extracts were obtained by lysing cells or tissue (prelysed as described in the paragraph before) in 62.5 mM Tris, 2% SDS and 10% sucrose, supplemented with protease (Sigma, P2714) and phosphatase (Roche, 04906837001) inhibitor cocktail. Samples were sonicated and heated at 95 °C for 5 min. Proteins were separated by SDS-PAGE and electro-transferred onto nitrocellulose membranes. Blots were placed in Tris-buffered saline, supplemented with 0.05% Tween (Sigma, P2287) and 5% non-fat milk for 1 h at room temperature and then incubated with primary antibody (diluted in TBS/0.05% Tween) overnight at 4 °C. The following primary antibodies were used: Beclin1 (1:1000, Cell Signaling, #3495), Atg12 (1:1000, Cell Signaling #2010), LC3B-I/II (1:1000, Cell Signaling, #2775), FLAG (1:7000, Rockland, 600-401-383), FKBP51 (1:1000, Bethyl, A301-430A), Akt (1:1000, Cell Signaling, #4691), pAkt (1:1000, Ser473, T308, 1:1000, Cell Signaling, #4058, #9275), Actin (1:5000, Santa Cruz Biotechnologies, sc-1616), Skp2, myc (Addgene, 19947), GFP (santa cruz biotechnologies, sc-8334), p27 (cell signaling technologies, 3686), pULK,(S757, cell signaling technologies, 6888) APP-CTF (sigma-aldrich, A8717), DNMT1 (1:1000, Imgenex, IMG-261A), phospho-DNMT1 (S154), (1:1000, Abnova, PAB4924), ptau (S622; Santa Cruz Biotechnologies, #sc-16938).
# Subsequently, blots were washed and probed with the respective horseradish peroxidase- or fluorophore-conjugated secondary antibody for 1 h at room temperature. The immuno-reactive bands were visualized either using ECL detection reagent (Millipore, Billerica, MA, USA, WBKL0500) or directly by excitation of the respective fluorophore. Determination of the band intensities were performed with BioRad, ChemiDoc MP, or X-ray-films.
# The Fkbp51^-/- mouse line was previously generated (Touma C et al. (2011) Biol. Psychiatry 70: 928-936) and fully backcrossed to C57/BI6. […] Hippocampus and prefrontal cortex were extracted.
# [5] = Forced swim test after acute antidepressant injection in Fkbp51+/+ and Fkbp51-/- mice; assay type: in vivo; conditions: FKBP51 WT versus FKBP51 KO mice; 10 mg kg-1 intraperitoneal
# Description: The Fkbp51^-/- mouse line was previously generated (Touma C et al. (2011) Biol. Psychiatry 70: 928-936) and fully backcrossed to C57/BI6. […] Hippocampus and prefrontal cortex were extracted. […] Male mice (age 10-16 weeks) were injected intraperitoneally with a single dose of either AMI (10 mg kg^-1) or saline vehicle. […] Another subgroup (WT n=5, KO n=5) was sacrificed, and brain tissue and blood was sampled for analysis of drug concentrations. […] The inventors performed an additional forced swim test administering the antidepressant amitriptyline in FKBP51 WT and FKBP51 KO mice (Fig. 1 B).
# Beclin1 mRNA = Beclin1 mRNA expression by qPCR in rat cortical astrocytes; assay type: cell-based; conditions: 10µM for 72h; vehicle set to 1
# Description: as §4
# Total RNA was isolated from astroglial cells according to the manufacturer's protocol of NucleoSpin RNA II (Macherey-Nagel, Germany). In total, 300 ng of purified RNA was reverse transcribed using random primers (Promega) and Omniscript® Reverse Transcriptase (Qiagen). Based on the LightCycler® System (Roche Applied Science, Germany) and SYBR green detection (QuantiFast® SYBR Green; Qiagen), quantitative assessment of Beclin1 cDNA levels were performed. b-Actin PCR was performed serving as endogenous control for normalization. The primers used were: for Beclin1: antisense - 5'-[…]-3' sense - 5'-[…]-3'; and for β-Actin: antisense - 5'-[…]-3', sense-5'-[…]-3'. Relative changes of gene expression were calculated using the comparative ΔΔCT method (Livak and Schmittgen, METHODS 25, 402-408, 2001). Detection of viral RNA by real-time PCR was as recently described (Corman et al. (2014) Journal of Clinical Virology 60: 168-171).
# Beclin1 mRNA expression levels were determined by qPCR. HEK cells were treated either with proteasome inhibitor MG132 or with vehicle for 5h and Beclin1 protein levels were determined by Western analysis. Furthermore Co-immunoprecipitations were performed with Beclin1 antibody in HEK cell lysates with ectopic Ub-GFP.
Compound,Beclin1 stabilization confirmed in other cell types and mice brain lysates (Beclin1 [1]),levels of soluble Aβ in plasma and CSF (soluble Aβ),"induction of autophagy (p27, Beclin1, Atg12, pULK S757; Beclin1 ubiquitinylation, Vps34 association) (autophagy)","synaptic neurotransmission (CA1 FDSs, VSDI) (CA1 neuronal activity)",cytotoxic effects (MTT assay) [2],antidepressant-like behavior in the tail suspension test (Tail suspension test),effect on Beclin1 protein level (Beclin1 [3]),levels of APP-CTF in the brain (APP-CTF),"stabilization of Beclin1 (protein level, Western analysis) (Beclin1 [4])",effects on autophagy markers (autophagy markers),"behavioral effects, forced swim test [5]",Beclin1 mRNA expression level (Beclin1 mRNA)
"CCCCc1ccc(NC(C)=O)c(C)c1 [SMIP004, N-(4-butyl-2-methylphenyl)acetamide]",confirmed in various cell types as well as in mice brain lysates,reduces the levels of soluble Aβ in plasma and CSF,"induces autophagy, independently of the mTOR-ULK1 cascade",increased synaptic neurotransmission similarly to paroxetine,very low cytotoxic effects,antidepressant-like behavior comparable to animals treated with paroxetine,particularly strong,reduces the levels of APP-CTF in the brain,potent stabilizer of Beclin1,,,
CN(C)CCC=C1c2ccccc2CCc2ccccc21 [amitriptyline],,,,,,,,,,only observed in FKBP51 WT mice but not in FKBP51 KO mice,only observed in FKBP51 WT mice but not in FKBP51 KO mice,do not change Beclin1-mRNA
CNCCC(Oc1ccc(C(F)(F)F)cc1)c1ccccc1 (stereo not shown) [fluoxetine],,,,,,,,,,,,do not change Beclin1-mRNA
